Molecular target: T1, SMARCA2 (Homo sapiens, UniProt P51531)
T1 construct: endogenous in cells; host or cells: HT1080 (CRISPR HiBiT knock-in clone, generated in house)
Test: SMARCA2 HiBiT degradation assay (cellular)
Format: cell-based
Conditions: table head names A549; for DC50: 6 h incubation, HiBiT-tagged SMARCA2, luminescence read-out, read-out: HiBit A549 SMARCA2 IP (nM) 6 h; for Emax: A549, 6 h incubation, Emax = amount of residual protein remaining in the cell following compound treatment

T1 sequence (P51531 whole entry): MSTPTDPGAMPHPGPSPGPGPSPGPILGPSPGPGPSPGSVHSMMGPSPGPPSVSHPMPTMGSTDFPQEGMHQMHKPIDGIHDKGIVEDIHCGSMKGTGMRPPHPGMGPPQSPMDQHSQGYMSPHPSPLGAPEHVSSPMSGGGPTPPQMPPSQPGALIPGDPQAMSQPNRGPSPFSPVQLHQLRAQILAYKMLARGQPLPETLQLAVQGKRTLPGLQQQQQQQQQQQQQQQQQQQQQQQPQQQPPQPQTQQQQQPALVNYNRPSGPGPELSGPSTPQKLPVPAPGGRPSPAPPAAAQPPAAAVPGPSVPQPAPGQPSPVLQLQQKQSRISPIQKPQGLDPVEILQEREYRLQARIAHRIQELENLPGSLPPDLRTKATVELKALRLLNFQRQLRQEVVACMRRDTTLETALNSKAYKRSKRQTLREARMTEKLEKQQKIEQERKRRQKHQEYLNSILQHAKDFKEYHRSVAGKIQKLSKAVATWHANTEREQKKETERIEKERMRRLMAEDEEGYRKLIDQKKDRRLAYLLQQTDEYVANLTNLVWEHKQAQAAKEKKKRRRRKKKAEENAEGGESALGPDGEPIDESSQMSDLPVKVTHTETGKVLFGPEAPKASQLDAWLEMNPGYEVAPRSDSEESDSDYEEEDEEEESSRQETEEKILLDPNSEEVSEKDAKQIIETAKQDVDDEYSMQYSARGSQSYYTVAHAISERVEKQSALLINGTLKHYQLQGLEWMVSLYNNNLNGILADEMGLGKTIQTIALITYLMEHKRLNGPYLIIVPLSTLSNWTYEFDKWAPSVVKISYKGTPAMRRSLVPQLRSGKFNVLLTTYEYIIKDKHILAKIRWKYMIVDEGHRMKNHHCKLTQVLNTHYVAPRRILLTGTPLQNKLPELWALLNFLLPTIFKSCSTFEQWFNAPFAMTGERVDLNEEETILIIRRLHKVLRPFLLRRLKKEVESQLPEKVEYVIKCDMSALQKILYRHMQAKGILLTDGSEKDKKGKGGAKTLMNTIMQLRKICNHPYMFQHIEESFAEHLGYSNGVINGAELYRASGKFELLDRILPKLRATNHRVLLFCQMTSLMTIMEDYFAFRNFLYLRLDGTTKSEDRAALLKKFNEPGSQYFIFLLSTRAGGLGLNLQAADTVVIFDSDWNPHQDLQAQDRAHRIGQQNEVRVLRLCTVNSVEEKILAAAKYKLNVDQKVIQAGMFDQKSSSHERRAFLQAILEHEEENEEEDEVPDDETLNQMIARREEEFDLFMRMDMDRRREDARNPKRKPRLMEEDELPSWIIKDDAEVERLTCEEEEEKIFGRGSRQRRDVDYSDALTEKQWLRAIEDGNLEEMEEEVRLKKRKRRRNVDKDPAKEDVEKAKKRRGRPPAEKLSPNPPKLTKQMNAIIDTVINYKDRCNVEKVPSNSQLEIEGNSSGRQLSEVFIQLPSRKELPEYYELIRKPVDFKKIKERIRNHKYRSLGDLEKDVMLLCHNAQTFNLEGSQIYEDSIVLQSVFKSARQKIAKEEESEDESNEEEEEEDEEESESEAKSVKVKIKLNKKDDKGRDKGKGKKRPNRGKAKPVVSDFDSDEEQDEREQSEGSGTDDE

DC50	Emax	Compound
810 nM	63%	Nc1nnc(-c2ccccc2O)cc1N1CCC(NC(=O)CCN2CCC(c3ccc(OC4CCC(=O)NC4=O)cc3)CC2)(c2ccccc2)CC1 (stereo not drawn) [Example 115, N-(1-(3-amino-6-(2-hydroxyphenyl)pyridazin-4-yl)-4-phenylpiperidin-4-yl)-3-(4-(4-((2,6-dioxopiperidin-3-yl)oxy)phenyl)piperidin-1-yl)propanamide diformate]
35 nM	50%	Nc1nnc(-c2ccccc2O)cc1N1CCC(C(=O)N2CCC(NC(=O)C3CCN(c4ccc5c(c4)C(=O)N(C4CCC(=O)NC4=O)C5=O)CC3)CC2)(c2ccccc2)CC1 (stereo not drawn) [Example 119, N-(1-(1-(3-amino-6-(2-hydroxyphenyl)pyridazin-4-yl)-4-phenylpiperidine-4-carbonyl)piperidin-4-yl)-1-(2-(2,6-dioxopiperidin-3-yl)-1,3-dioxoisoindolin-5-yl)piperidine-4-carboxamide]
31 nM	28%	Nc1nnc(-c2ccccc2O)cc1N1CCC(C(=O)N2CCN(C(=O)C3CCN(c4ccc5c(c4)C(=O)N(C4CCC(=O)NC4=O)C5=O)CC3)CC2)(c2ccccc2)CC1 (stereo not drawn) [Example 120, 5-(4-(4-(1-(3-amino-6-(2-hydroxyphenyl)pyridazin-4-yl)-4-phenylpiperidine-4-carbonyl)piperazine-1-carbonyl)piperidin-1-yl)-2-(2,6-dioxopiperidin-3-yl)isoindoline-1,3-dione]
47 nM	26%	Nc1nnc(-c2ccccc2O)cc1N1CCC(C(=O)N2CC3(CN(C(=O)C4CCN(c5ccc6c(c5)C(=O)N(C5CCC(=O)NC5=O)C6=O)CC4)C3)C2)(c2ccccc2)CC1 (stereo not drawn) [Example 121, 5-(4-(6-(1-(3-amino-6-(2-hydroxyphenyl)pyridazin-4-yl)-4-phenylpiperidine-4-carbonyl)-2,6-diazaspiro[3.3]heptane-2-carbonyl)piperidin-1-yl)-2-(2,6-dioxopiperidin-3-yl)isoindoline-1,3-dione]
70 nM	29%	Nc1nnc(-c2ccccc2O)cc1N1CCC(C(=O)N2CC3(CN(C(=O)CC4CCN(c5ccc6c(c5)C(=O)N(C5CCC(=O)NC5=O)C6=O)CC4)C3)C2)(c2ccccc2)CC1 (stereo not drawn) [Example 122, 5-(4-(2-(6-(1-(3-amino-6-(2-hydroxyphenyl)pyridazin-4-yl)-4-phenylpiperidine-4-carbonyl)-2,6-diazaspiro[3.3]heptan-2-yl)-2-oxoethyl)piperidin-1-yl)-2-(2,6-dioxopiperidin-3-yl)isoindoline-1,3-dione]
75 nM	34%	Nc1nnc(-c2ccccc2O)cc1N1CCC(C(=O)N2CC3(CN(C(=O)CCCN4CCC(c5ccc(OC6CCC(=O)NC6=O)cc5)CC4)C3)C2)(c2ccccc2)CC1 (stereo not drawn) [Example 123, 3-(4-(1-(4-(6-(1-(3-amino-6-(2-hydroxyphenyl)pyridazin-4-yl)-4-phenylpiperidine-4-carbonyl)-2,6-diazaspiro[3.3]heptan-2-yl)-4-oxobutyl)piperidin-4-yl)phenoxy)piperidine-2,6-dione]
272 nM	63%	Nc1nnc(-c2ccccc2O)cc1N1CCC(C(=O)NCC2CCN(CC3CCN(c4ccc5c(c4)C(=O)N(C4CCC(=O)NC4=O)C5=O)CC3)CC2)(c2ccccc2)C1 (stereo not drawn) [Example 124, 1-[3-amino-6-(2-hydroxyphenyl)pyridazin-4-yl]-N-[[1-[[l-[2-(2,6-dioxo-3-piperidyl)-1,3-dioxo-isoindolin-5-yl]-4-piperidyl]methyl]-4-piperidyl]methyl]-3-phenyl-pyrrolidine-3-carboxamide]
	26%	Nc1nnc(-c2ccccc2O)cc1N1CCN(c2cccc(CN3CCN(C(=O)C4CCN(c5ccc6c(c5)C(=O)N(C5CCC(=O)NC5=O)C6=O)CC4)CC3)c2)C2(CC2)C1 (stereo not drawn) [Example 127, 5-(4-(4-(3-(7-(3-amino-6-(2-hydroxyphenyl)pyridazin-4-yl)-4,7-diazaspiro[2.5]octan-4-yl)benzyl)piperazine-1-carbonyl)piperidin-1-yl)-2-(2,6-dioxopiperidin-3-yl)isoindoline-1,3-dione]

Source: patent publication US20230024096A1, “BIFUNCTIONAL COMPOUNDS FOR THE TREATMENT OF CANCER” (Hoffmann-La Roche Inc., priority 2019, published 2023)
